1 compound from ChEMBL document CHEMBL3826922, “Synthesis 4-[2-(2-mercapto-4-oxo-4H-quinazolin-3-yl)-ethyl]-benzenesulfonamides with subnanomolar carbonic anhydrase II and XII inhibitory properties” (Bioorg Med Chem, 2016) can be followed below.

As a reminder, the Ki is the dissociation constant of the complex between target and ligand, obtained from inhibition or displacement. Higher therefore signals weaker binding.

For one assay, the target named is Carbonic anhydrase 2 (Homo sapiens, UniProt P00918). The assay is described as follows: Inhibition of human CA2 preincubated for 15 mins by stopped flow CO2 hydration assay.
For another assay, the target named is Carbonic anhydrase 12 (Homo sapiens, UniProt O43570). The assay is described as follows: Inhibition of human CA12 preincubated for 15 mins by stopped flow CO2 hydration assay.
The target in the next assay is Carbonic anhydrase 1 (Homo sapiens, UniProt P00915). In words: Inhibition of human CA1 preincubated for 15 mins by stopped flow CO2 hydration assay.
Sequence of Carbonic anhydrase 1 (P00915 whole entry): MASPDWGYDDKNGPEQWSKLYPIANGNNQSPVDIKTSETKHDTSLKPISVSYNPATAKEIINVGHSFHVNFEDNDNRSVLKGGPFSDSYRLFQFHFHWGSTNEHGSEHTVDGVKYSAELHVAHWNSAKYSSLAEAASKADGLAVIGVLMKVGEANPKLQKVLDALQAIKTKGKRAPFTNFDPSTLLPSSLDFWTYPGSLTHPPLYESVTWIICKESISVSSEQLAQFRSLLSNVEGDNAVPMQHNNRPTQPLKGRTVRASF

Sequence of Carbonic anhydrase 12 (O43570 whole entry): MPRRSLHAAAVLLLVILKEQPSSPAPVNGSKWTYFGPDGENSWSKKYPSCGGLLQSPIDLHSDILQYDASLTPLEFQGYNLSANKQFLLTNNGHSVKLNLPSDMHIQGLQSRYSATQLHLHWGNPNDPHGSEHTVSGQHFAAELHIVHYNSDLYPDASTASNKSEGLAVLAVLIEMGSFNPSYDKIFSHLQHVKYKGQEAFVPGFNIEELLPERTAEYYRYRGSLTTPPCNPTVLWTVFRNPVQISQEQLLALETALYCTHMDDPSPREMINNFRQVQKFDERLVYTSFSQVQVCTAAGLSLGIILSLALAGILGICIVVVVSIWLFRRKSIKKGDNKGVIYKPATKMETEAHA

For `NS(=O)(=O)c1ccc(CCn2c(=S)[nH]c3ccc(F)cc3c2=O)cc1`, the values for the Ki on Carbonic anhydrase 2, on Carbonic anhydrase 12 and at Carbonic anhydrase 1 were 12.4 nM, 0.62 nM and 212 nM, respectively.
